The numbers were not newly measured in US10986851B2, “Control of pathogenic bacteria in foods” (priority 2018, dated 2021), which cites them from elsewhere.

The subject of data set [1] is Salmonella. To be noted: ground chicken containing 9.8% fat, refrigerated storage, 200 ppm.
Data set [2] relates to Salmonella. To be noted: suspension in 0.1% peptone water.
Data set [3] deals with Salmonella. The following applies: postchill decontamination tank, ground poultry parts; 0.07 and 0.1% PAA evaluated.

SMILES strings stand for the structures.

On to `CCCCCCCCCCCC(=O)N[C@@H](CCCN=C(N)N)C(=O)OCC` [LAE, lauric arginate], for which the “effect on growth of Salmonella” value with Salmonella [1] is “no inhibitory (P>0.05) effect”. In the data set with Salmonella [2], the “inhibitory effect against Salmonella” value is given as “strong inhibitory (P<0.05) effect”.

With `CC(=O)OO` [PAA, peracetic acid], the “reduction of Salmonella” value in the data set with Salmonella [3] is given as “effective for the reduction of Salmonella”.
